Data on two compounds can be found in ChEMBL document CHEMBL1142553, “A new vitamin E (alpha-tocomonoenol) from eggs of the Pacific salmon Oncorhynchus keta” (J Nat Prod, 1999).

Activity calls are given as the source filed them. The rule behind the calls is not given here.

Holding throughout (assay type): functional
Assay [1] can be described thus: Antioxidant activity in methanolic solution at 83 uM at 37 degC.
A short description of assay [2]: Antioxidant activity assessed as inhibition of rate of formation of phosphatidylcholine hydroperoxides at 2.2 uM by phosphatidylcholine oxidation assay.
A short description of assay [3]: Antioxidant activity assessed as inhibition of rate of formation of phosphatidylcholine hydroperoxides at 1.9 uM by phosphatidylcholine oxidation assay.

Consider `Cc1c(C)c2c(c(C)c1O)CC[C@@](C)(CCC[C@H](C)CCC[C@H](C)CCCC(C)C)O2`, for which the result in assay [1] and in assay [2] was Active.
With `C=C(C)CCC[C@@H](C)CCC[C@@H](C)CCC[C@]1(C)CCc2c(C)c(O)c(C)c(C)c2O1`, the outcome in assay [3] and in assay [1] was Active.
